Several values for one entry are separate records, joined by “and”; a condition that tells them apart may be missing. Identical values can stand only once.
Test system: Jurkat human lymphoid cells
Assay: Lipid peroxide (LP) quantity in cells with or without UV irradiation, fluorescent probe, flow cytometry
Assay type: cell-based
Details: for Fluorescence intensity Mean: mean of triplicate; for % of control: relative LP quantity; for 1/fluorescence intensity: relative quantity of lipid peroxides
From the text: The purpose of the study is to evaluate the effects of the maca peptide extract on the lipid peroxidation rate (LP) in human cells (Jurkat) exposed or not to UVA+UVB radiation. LP measurement was made with a specific fluorescent probe by flow cytometry. This method has the advantage of showing great sensitivity when measuring the fluorescence of individual cells, over a large number of cells (10 000 cells analysed per sample). The cells used are Jurkat human lymphoid cells distributed in 24-well plates with 8.10^5 cells/well. The culture medium is RPMI 1640 (Invitrogen 31870-025) at […] and in the presence of 5% CO2. The test medium is MEM without phenol red and without calf serum (Polylabo 5503401). Tests are conducted with the peptide extract obtained in example 1, with twofold dilution i.e. in the form of an extract with 5% dry matter. A solution S1 containing 2% of this extract is prepared in the test medium. The control used is butyl hydroxyanisol (BHA Sigma ref. B 1253) in a […] solution in absolute ethanol. Tests are conducted with a solution S2 containing 100 μM BHA prepared in the test medium. […] Rad. Biol. Med., 1997, 22, 13-100) in a 5 μM solution in absolute ethanol. The tests are conducted using a 1 μM probe solution S3 prepared in the test medium. The human cells are pre-incubated in the culture medium, then washed in the test medium. They are subsequently incubated in the presence of the S1 solution of the peptide extract or the S2 control solution. The probe solution S3 is added to each batch for LP assay. After 45 minutes incubation, the fluorescent probe is removed by washing in the test medium. Part of the batches are then irradiated with […], another part without irradiation used as control. After 20 minutes incubation the fluorescence parameters are measured by flow cytometry. Determination of the relative quantity of lipid peroxides (LP) is based on measurement of the reduction in fluorescence of the probe integrated in the cell membranes. An increase in the fluorescence signal translates a reduction in the basal rate of membrane lipid peroxides. The studies are conducted in triplicate. The results obtained are expressed as the value of fluorescence intensity, and percentages with respect to the control are calculated using the values of fluorescence intensity.

## COc1ccc(O)c(C(C)(C)C)c1 [BHA, butyl hydroxyanisol]
With UV irradiation, BHA 100 μM, extract 2% solution
  Fluorescence intensity Mean: 374.67
With UV irradiation, Test +UV = 100
  % of control: 50%
With UV irradiation
  1/fluorescence intensity: 0.00267
With UV irradiation, single replicate values, BHA 100 μM, extract 2% solution
  Fluorescence intensity: 362.40 and 368.20 and 393.42
Without UV, BHA 100 μM, 2% MC101
  Fluorescence intensity Mean: 753
Without UV, Control -UV = 100
  % of control: 67%
Without UV
  1/fluorescence intensity: 0.00133
Without UV, single replicate values, BHA 100 μM, 2% MC101
  Fluorescence intensity n = 10000 cells: 741.05 and 745.64 and 770.93
